8 molecules from PubChem BioAssay (NCI) can be followed below.

“And” between values parts separate entries of the source, which are not always exact repeats. Equal entries are not always repeated.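 Cultured in 96-well plates, cells were exposed to test compound for 48 hours across five concentrations. Abbreviation: GI50, concentration required for 50% inhibition of growth. At the TGI there is no net growth.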

Holding throughout (test): inhibition of tumour cell growth, NCI panel, 48 h
Assay [1] relates to HCC-2998 colon.
Assay [2] concerns HCT-116 colon.
For assay [3], the system named is HOP-62 NSCLC.
For assay [4], the system named is M14 melanoma.
The subject of assay [5] is MDA-MB-231 breast.
Assay [6] relates to NCI-H460 lung.
The test system of assay [7] is NCI/ADR-RES ovarian.
For assay [8], the system named is SK-OV-3 ovarian.
Assay [9] deals with SNB-75 CNS.
Assay [10] has as its system SW-620 colon.

As for `CN(C)c1ccc2[nH]c(O)c(C=Nc3ccc(S(N)(=O)=O)cc3)c2c1`, the GI50 in assay [1] was > 25 µM; in [2], 20300 nM; in assay [3], > 25 µM; in [4] it was > 25 µM; in assay [5], > 25 µM; in assay [6] it was > 25000 nM. Also, the GI50 in [7] was > 25 µM; in assay [8] it was > 25 µM; in [9] it was > 25 µM; in [10], > 21.9 µM. Moreover, the TGI in assay [1], in [2], in assay [3], in assay [4], in assay [5] and in assay [6] was > 25 µM each time. Besides, the TGI in assay [7], in assay [8], in assay [9] and in [10] was > 25 µM throughout.
Take `Cc1c(N(C(=O)c2cc(-c3cc(Cl)ccc3C(=O)N3Cc4ccccc4C[C@H]3CN3CCOCC3)n(C)c2C)c2ccc(O)cc2)cc(C#N)n1C`: the GI50 in [1] was 15.1 µM; in assay [2], 7660 nM; in [3], 25.8 µM; in assay [4], 21.8 µM; in [5], 20.2 µM; in [6] it was 31300 nM. Also, the GI50 in assay [7] was 50.6 µM; in [8], 17.9 µM; in [9], 9.79 µM; in assay [10], 34.4 µM. Further, the TGI in [1] was 44.9 µM; in assay [2], > 100 µM; in assay [3], > 100 µM; in assay [4] it was > 100 µM; in assay [5], > 100 µM; in [6], > 100 µM. Further, the TGI was > 100 µM in assay [7], > 100 µM in [8], 30.9 µM in assay [9] and > 100 µM in [10].
As for `COc1cc2c3c(n(CCCn4ccnc4)c(=O)c2cc1OC)-c1ccccc1C3=O`, the GI50 in [1] was 0.0598 µM; in [2] it was < 13.5 nM; in assay [3], < 0.0162 µM; in assay [4], < 0.0171 µM; in [5], 0.254 µM; in assay [6] it was < 10 nM. For the same molecule, the GI50 in [7] was 0.223 µM; in assay [8] it was 1.13 µM; in assay [9] it was 0.0681 µM; in assay [10] it was < 0.0206 µM. The TGI came to 0.504 µM in [1]; 0.153 µM in assay [2]; 0.141 µM in assay [3]; 0.116 µM in assay [4]; 5.19 µM in [5]; 4.77 µM in assay [6]. In addition, the values for the TGI in assay [7] and in [9] were 1.86 µM and 4.33 µM, respectively.
As to `CCC[CH2][Sn]([CH2]CCC)([O]C(=O)c1cccc(F)c1F)[O][Sn]([CH2]CCC)([CH2]CCC)[O]C(=O)c1cccc(F)c1F`, the GI50 in [1] was 0.617 µM; in assay [2], 257 nM; in [3], 1.6 µM; in assay [4] it was 0.274 µM; in assay [5], 0.218 µM; in [6], 1300 nM. In addition, the GI50 in assay [7] is 0.3 µM; in assay [8], 0.915 µM; in assay [9] it was 0.317 µM; in assay [10], 0.103 µM. The TGI is 1.92 µM in assay [1]; 0.848 µM in assay [2]; 3 µM in [3]; 0.891 µM in assay [4]; 1.19 µM in assay [5]; 2.62 µM in assay [6]. Also, the TGI is 1.32 µM in [7], 2.23 µM in assay [8], 1.52 µM in [9] and 0.239 µM in [10].
As for `O=c1[nH]cnc2c1nnn2[C@@H]1O[C@H](CO)[C@@H](O)[C@H]1O`, the GI50 is 4.33 µM in assay [1]; 3930 nM in assay [2]; 9.22 µM in assay [3]; 3.54 µM in assay [4]; 7.68 µM in assay [5]; 2510 nM in [6]. Moreover, the GI50 in [7] is 2.27 µM; in assay [8], 0.868 µM; in [9] it was 3.22 µM; in [10] it was 3.01 µM. Besides, the TGI in assay [1] is > 100 µM; in assay [2] it was > 100 µM; in assay [3] it was > 100 µM; in assay [4], 41.9 µM; in assay [5], > 100 µM; in [6], > 100 µM. Besides, the TGI in [7], in [8], in assay [9] and in assay [10] was > 100 µM each time.
Regarding `C=C1C(=O)O[C@H]2[C@H]1CC/C(COC(=O)N[C@@H](Cc1c[nH]c3ccccc13)C(=O)OC)=C\CC[C@@]1(C)O[C@@H]21`, the GI50 in assay [1] is 1.95 µM; in assay [2] it was 1250 nM; in [3] it was 8.77 µM; in assay [4], 1.59 µM; in assay [5], 1.41 µM; in assay [6] it was 3400 nM. Also, the GI50 in assay [7] was 6.78 µM; in [8], 12 µM; in assay [9] it was 4.45 µM; in [10], 1.47 µM. The TGI was found to be 4.01 µM in assay [1]; 2.79 µM in [2]; 22.1 µM in assay [3]; 3.35 µM in [4]; 3.16 µM in assay [5]; 12.6 µM in assay [6]. Besides, the TGI in assay [7] was found to be 27.3 µM; in [8] it was 24.6 µM; in [9], 19.3 µM; in assay [10], 3.67 µM.
`COc1cc(N)ccc1Nc1c2ccccc2nc2ccccc12`: the GI50 in [1] is 15.3 µM; in assay [2], 2510 nM; in [3], 9.98 µM; in assay [4] it was 16.5 µM; in assay [5], 13.1 µM; in assay [6], 1380 nM. The GI50 in assay [7] was 15.4 µM; in assay [8], 12.5 µM; in assay [9], 10.8 µM; in assay [10] it was 3.55 µM. Moreover, the TGI in [1] stood at 30.3 µM; in [2], 7.63 µM; in assay [3], 27.9 µM; in assay [4], 36.2 µM; in assay [5] it was 28.6 µM; in assay [6] it was 7.72 µM. Further, the TGI is 45.3 µM in [7], 29.4 µM in assay [8], 31.2 µM in [9] and 13.5 µM in assay [10].
As to `Cc1cc(-c2cc(C)c(O)c(C(C)(C)C)c2)cc(C(C)(C)C)c1O`, the TGI in [1] was 15.4 µM and 18.7 µM; in [2], 19.5 µM and 22.8 µM; in assay [3] it was 34.5 µM and 31 µM; in [4], 22.4 µM and 25.4 µM; in assay [5] it was 21.4 µM and 26.2 µM; in [6], 19.4 µM and 17.8 µM. Moreover, the TGI in assay [7] is 23.5 µM and 28.2 µM; in assay [8] it was 29.2 µM and 30.4 µM; in assay [9] it was 25.4 µM and 27 µM; in [10], 25.1 µM and 70 µM.
